# Patent US20110173718A1, “HERBICIDE TOLERANT PLANTS” (SYNGENTA CROP PROTECTION, INC., priority 2008, published 2011)
# Legend:
# weeds [1] = assay: Glasshouse weed control by HST/HPPD (mesotrione) mixtures, post-emergence; assay type: in vivo; conditions: post-emergence; for % damage, 1 g ai ha^−1 mesotrione / % damage, no-mesotrione: 14 DAT; for colby: difference to Colby expectation
# weeds [2] = assay: Glasshouse weed control by HST/HPPD (mesotrione) mixtures, pre-emergence; assay type: in vivo; conditions: for colby: Colby synergy score; for % Damage at 14 DAA, 1 g ai ha^−1 mesotrione / % Damage at 14 DAA, no-mesotrione: N = 3
# [3] = ALOMY, 16 g/ha + 1 g ai/ha mesotrione
# [4] = ALOMY, 31 g/ha + 1 g ai/ha mesotrione
# [5] = ALOMY, 63 g/ha + 1 g ai/ha mesotrione
# [6] = ALOMY, 125 g/ha + 1 g ai/ha mesotrione
# [7] = ALOMY, 250 g/ha + 1 g ai/ha mesotrione
# [8] = ALOMY, 500 g/ha + 1 g ai/ha mesotrione
# [9] = ECHCG, 16 g/ha + 1 g ai/ha mesotrione
# [10] = ECHCG, 31 g/ha + 1 g ai/ha mesotrione
# [11] = ECHCG, 63 g/ha + 1 g ai/ha mesotrione
# [12] = ECHCG, 125 g/ha + 1 g ai/ha mesotrione
# [13] = ECHCG, 250 g/ha + 1 g ai/ha mesotrione
# [14] = ECHCG, 500 g/ha + 1 g ai/ha mesotrione
# [15] = SETFA, 16 g/ha + 1 g ai/ha mesotrione
# [16] = SETFA, 31 g/ha + 1 g ai/ha mesotrione
# [17] = SETFA, 63 g/ha + 1 g ai/ha mesotrione
# [18] = SETFA, 125 g/ha + 1 g ai/ha mesotrione
# [19] = SETFA, 250 g/ha + 1 g ai/ha mesotrione
# [20] = SETFA, 500 g/ha + 1 g ai/ha mesotrione
# [21] = ALOMY, 16 g/ha + mesotrione 1 g ai/ha
# [22] = ALOMY, 31 g/ha + mesotrione 1 g ai/ha
# [23] = ALOMY, 63 g/ha + mesotrione 1 g ai/ha
# [24] = ALOMY, 125 g/ha + mesotrione 1 g ai/ha
# [25] = ALOMY, 250 g/ha + mesotrione 1 g ai/ha
# [26] = ALOMY, 500 g/ha + mesotrione 1 g ai/ha
# [27] = AMARE, 16 g/ha + mesotrione 1 g ai/ha
# [28] = AMARE, 31 g/ha + mesotrione 1 g ai/ha
# [29] = AMARE, 63 g/ha + mesotrione 1 g ai/ha
smiles,measurement,setting,value
O=c1c(Cl)c(F)[nH]c(F)c1Cl [Haloxidine],"% damage, 1 g ai ha^−1 mesotrione",weeds [1]; [3],23%
same,colby,weeds [1]; [3],10
same,"% damage, no-mesotrione","weeds [1]; ALOMY, 16 g/ha",13%
same,"% damage, 1 g ai ha^−1 mesotrione",weeds [1]; [4],33%
same,colby,weeds [1]; [4],7
same,"% damage, no-mesotrione","weeds [1]; ALOMY, 31 g/ha",27%
same,"% damage, 1 g ai ha^−1 mesotrione",weeds [1]; [5],68%
same,colby,weeds [1]; [5],15
same,"% damage, no-mesotrione","weeds [1]; ALOMY, 63 g/ha",53%
same,"% damage, 1 g ai ha^−1 mesotrione",weeds [1]; [6],83%
same,colby,weeds [1]; [6],5
same,"% damage, no-mesotrione","weeds [1]; ALOMY, 125 g/ha",78%
same,"% damage, 1 g ai ha^−1 mesotrione",weeds [1]; [7],92%
same,colby,weeds [1]; [7],2
same,"% damage, no-mesotrione","weeds [1]; ALOMY, 250 g/ha",90%
same,"% damage, 1 g ai ha^−1 mesotrione",weeds [1]; [8],95%
same,colby,weeds [1]; [8],0
same,"% damage, no-mesotrione","weeds [1]; ALOMY, 500 g/ha",95%
same,"% damage, 1 g ai ha^−1 mesotrione",weeds [1]; [9],57%
same,colby,weeds [1]; [9],18
same,"% damage, no-mesotrione","weeds [1]; ECHCG, 16 g/ha",33%
same,"% damage, 1 g ai ha^−1 mesotrione",weeds [1]; [10],67%
same,colby,weeds [1]; [10],11
same,"% damage, no-mesotrione","weeds [1]; ECHCG, 31 g/ha",52%
same,"% damage, 1 g ai ha^−1 mesotrione",weeds [1]; [11],75%
same,colby,weeds [1]; [11],15
same,"% damage, no-mesotrione","weeds [1]; ECHCG, 63 g/ha",57%
same,"% damage, 1 g ai ha^−1 mesotrione",weeds [1]; [12],78%
same,colby,weeds [1]; [12],6
same,"% damage, no-mesotrione","weeds [1]; ECHCG, 125 g/ha",70%
same,"% damage, 1 g ai ha^−1 mesotrione",weeds [1]; [13],97%
same,colby,weeds [1]; [13],12
same,"% damage, no-mesotrione","weeds [1]; ECHCG, 250 g/ha",83%
same,"% damage, 1 g ai ha^−1 mesotrione",weeds [1]; [14],100%
same,colby,weeds [1]; [14],2
same,"% damage, no-mesotrione","weeds [1]; ECHCG, 500 g/ha",98%
same,"% damage, 1 g ai ha^−1 mesotrione",weeds [1]; [15],27%
same,colby,weeds [1]; [15],−15
same,"% damage, no-mesotrione","weeds [1]; SETFA, 16 g/ha",42%
same,"% damage, 1 g ai ha^−1 mesotrione",weeds [1]; [16],82%
same,colby,weeds [1]; [16],13
same,"% damage, no-mesotrione","weeds [1]; SETFA, 31 g/ha",68%
same,"% damage, 1 g ai ha^−1 mesotrione",weeds [1]; [17],92%
same,colby,weeds [1]; [17],12
same,"% damage, no-mesotrione","weeds [1]; SETFA, 63 g/ha",80%
same,"% damage, 1 g ai ha^−1 mesotrione",weeds [1]; [18],97%
same,colby,weeds [1]; [18],3
same,"% damage, no-mesotrione","weeds [1]; SETFA, 125 g/ha",93%
same,"% damage, 1 g ai ha^−1 mesotrione",weeds [1]; [19],100%
same,colby,weeds [1]; [19],0
same,"% damage, no-mesotrione","weeds [1]; SETFA, 250 g/ha",100%
same,"% damage, 1 g ai ha^−1 mesotrione",weeds [1]; [20],100%
same,colby,weeds [1]; [20],0
same,"% damage, no-mesotrione","weeds [1]; SETFA, 500 g/ha",100%
same,colby,weeds [2]; [21],5%
same,"% Damage at 14 DAA, 1 g ai ha^−1 mesotrione",weeds [2]; [21],8%
same,"% Damage at 14 DAA, no-mesotrione","weeds [2]; ALOMY, 16 g/ha",3%
same,colby,weeds [2]; [22],12%
same,"% Damage at 14 DAA, 1 g ai ha^−1 mesotrione",weeds [2]; [22],25%
same,"% Damage at 14 DAA, no-mesotrione","weeds [2]; ALOMY, 31 g/ha",13%
same,colby,weeds [2]; [23],8%
same,"% Damage at 14 DAA, 1 g ai ha^−1 mesotrione",weeds [2]; [23],50%
same,"% Damage at 14 DAA, no-mesotrione","weeds [2]; ALOMY, 63 g/ha",42%
same,colby,weeds [2]; [24],10%
same,"% Damage at 14 DAA, 1 g ai ha^−1 mesotrione",weeds [2]; [24],77%
same,"% Damage at 14 DAA, no-mesotrione","weeds [2]; ALOMY, 125 g/ha",67%
same,colby,weeds [2]; [25],−3%
same,"% Damage at 14 DAA, 1 g ai ha^−1 mesotrione",weeds [2]; [25],78%
same,"% Damage at 14 DAA, no-mesotrione","weeds [2]; ALOMY, 250 g/ha",82%
same,colby,weeds [2]; [26],−2%
same,"% Damage at 14 DAA, 1 g ai ha^−1 mesotrione",weeds [2]; [26],83%
same,"% Damage at 14 DAA, no-mesotrione","weeds [2]; ALOMY, 500 g/ha",85%
same,colby,weeds [2]; [27],2%
same,"% Damage at 14 DAA, 1 g ai ha^−1 mesotrione",weeds [2]; [27],42%
same,"% Damage at 14 DAA, no-mesotrione","weeds [2]; AMARE, 16 g/ha",38%
same,colby,weeds [2]; [28],1%
same,"% Damage at 14 DAA, 1 g ai ha^−1 mesotrione",weeds [2]; [28],75%
same,"% Damage at 14 DAA, no-mesotrione","weeds [2]; AMARE, 31 g/ha",73%
same,colby,weeds [2]; [29],5%
same,"% Damage at 14 DAA, 1 g ai ha^−1 mesotrione",weeds [2]; [29],93%
same,"% Damage at 14 DAA, no-mesotrione","weeds [2]; AMARE, 63 g/ha",88%
